Entries after “also recorded” stand apart in the source; their conditions may differ.
Columns and labels:
MEF cells [1] = assay: Internalization and degradation of cell surface-bound 125I-ligand, MEF cells; type: cell-based, mouse; conditions: for Cell surface-bound ligand internalized and degraded: MEF
[2] = tested on: cell surface α2M* receptors; conditions: 30 μM, reversible; cited from earlier work
acidic pH binding sites [3] = target: T1, acidic pH binding sites (Mus musculus, UniProt P14824); assay: Specific binding of 125I-ligands to MEF cells at acidic pH; conditions: MEF cells
T1 sequence (P14824 2-673): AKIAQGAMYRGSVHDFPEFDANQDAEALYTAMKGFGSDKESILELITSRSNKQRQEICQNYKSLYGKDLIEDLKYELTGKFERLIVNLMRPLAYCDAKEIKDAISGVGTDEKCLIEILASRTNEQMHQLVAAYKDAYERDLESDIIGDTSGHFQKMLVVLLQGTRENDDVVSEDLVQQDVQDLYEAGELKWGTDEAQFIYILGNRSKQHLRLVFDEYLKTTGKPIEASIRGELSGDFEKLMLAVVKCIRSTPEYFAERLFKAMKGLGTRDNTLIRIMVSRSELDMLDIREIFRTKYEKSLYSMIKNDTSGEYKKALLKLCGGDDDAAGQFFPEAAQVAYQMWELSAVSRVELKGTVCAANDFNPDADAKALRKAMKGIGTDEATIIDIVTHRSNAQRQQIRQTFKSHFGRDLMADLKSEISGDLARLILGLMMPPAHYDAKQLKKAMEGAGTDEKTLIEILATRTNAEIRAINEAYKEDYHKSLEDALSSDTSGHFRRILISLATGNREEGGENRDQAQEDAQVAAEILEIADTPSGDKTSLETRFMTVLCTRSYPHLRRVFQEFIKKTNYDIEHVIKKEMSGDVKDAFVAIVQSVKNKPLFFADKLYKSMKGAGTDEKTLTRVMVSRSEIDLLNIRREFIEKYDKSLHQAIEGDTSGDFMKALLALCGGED

LRP-1 = target: T2, LRP-1 (Mus musculus, UniProt Q91ZX7); assay: 125I-α2M* binding to MEF cells at pH 7.4; conditions: pH 7.4; read-out: IC50, inhibition of ^125I-α2M* binding to LRP-1
T2 construct: endogenous in cells; host or cells: MEF (mouse embryonic fibroblasts)

Mv1Lu cells [4] = assay: Internalization and degradation of cell surface-bound 125I-TGF-β1 or 125I-α2M*, Mv1Lu cells; type: cell-based, mink; conditions: 10 μM, pH 7.4, 1 hr at 37° C.
Experimental: After 1 hr at 37° C., the medium was collected and precipitated with 10% trichloroacetic acid (TCA). The TCA-soluble radioactive material in the medium represented the cellular degradation products of 125I-TGF-β1 or 125I-α2M*. The cells were then treated with trypsin (5 mg/ml), maintained for 20 min at 0° C. and centrifuged. The radioactivity in the supernate and cell pellets represented cell surface-bound and internalized 125I-TGF-β1 or 125I-α2M*, respectively. The experiments were performed in quadruplicate.
After 2.5 hr, cells were washed, then warmed to 37° C.

LRP-1/TβR-V = LRP-1/TβR-V (Homo sapiens, UniProt Q07954); conditions: pH 7.4; read-out: Kd for (high affinity) binding to LRP-1/TβR-V; cited from earlier work
Sequence of LRP-1/TβR-V (Q07954 20-4544): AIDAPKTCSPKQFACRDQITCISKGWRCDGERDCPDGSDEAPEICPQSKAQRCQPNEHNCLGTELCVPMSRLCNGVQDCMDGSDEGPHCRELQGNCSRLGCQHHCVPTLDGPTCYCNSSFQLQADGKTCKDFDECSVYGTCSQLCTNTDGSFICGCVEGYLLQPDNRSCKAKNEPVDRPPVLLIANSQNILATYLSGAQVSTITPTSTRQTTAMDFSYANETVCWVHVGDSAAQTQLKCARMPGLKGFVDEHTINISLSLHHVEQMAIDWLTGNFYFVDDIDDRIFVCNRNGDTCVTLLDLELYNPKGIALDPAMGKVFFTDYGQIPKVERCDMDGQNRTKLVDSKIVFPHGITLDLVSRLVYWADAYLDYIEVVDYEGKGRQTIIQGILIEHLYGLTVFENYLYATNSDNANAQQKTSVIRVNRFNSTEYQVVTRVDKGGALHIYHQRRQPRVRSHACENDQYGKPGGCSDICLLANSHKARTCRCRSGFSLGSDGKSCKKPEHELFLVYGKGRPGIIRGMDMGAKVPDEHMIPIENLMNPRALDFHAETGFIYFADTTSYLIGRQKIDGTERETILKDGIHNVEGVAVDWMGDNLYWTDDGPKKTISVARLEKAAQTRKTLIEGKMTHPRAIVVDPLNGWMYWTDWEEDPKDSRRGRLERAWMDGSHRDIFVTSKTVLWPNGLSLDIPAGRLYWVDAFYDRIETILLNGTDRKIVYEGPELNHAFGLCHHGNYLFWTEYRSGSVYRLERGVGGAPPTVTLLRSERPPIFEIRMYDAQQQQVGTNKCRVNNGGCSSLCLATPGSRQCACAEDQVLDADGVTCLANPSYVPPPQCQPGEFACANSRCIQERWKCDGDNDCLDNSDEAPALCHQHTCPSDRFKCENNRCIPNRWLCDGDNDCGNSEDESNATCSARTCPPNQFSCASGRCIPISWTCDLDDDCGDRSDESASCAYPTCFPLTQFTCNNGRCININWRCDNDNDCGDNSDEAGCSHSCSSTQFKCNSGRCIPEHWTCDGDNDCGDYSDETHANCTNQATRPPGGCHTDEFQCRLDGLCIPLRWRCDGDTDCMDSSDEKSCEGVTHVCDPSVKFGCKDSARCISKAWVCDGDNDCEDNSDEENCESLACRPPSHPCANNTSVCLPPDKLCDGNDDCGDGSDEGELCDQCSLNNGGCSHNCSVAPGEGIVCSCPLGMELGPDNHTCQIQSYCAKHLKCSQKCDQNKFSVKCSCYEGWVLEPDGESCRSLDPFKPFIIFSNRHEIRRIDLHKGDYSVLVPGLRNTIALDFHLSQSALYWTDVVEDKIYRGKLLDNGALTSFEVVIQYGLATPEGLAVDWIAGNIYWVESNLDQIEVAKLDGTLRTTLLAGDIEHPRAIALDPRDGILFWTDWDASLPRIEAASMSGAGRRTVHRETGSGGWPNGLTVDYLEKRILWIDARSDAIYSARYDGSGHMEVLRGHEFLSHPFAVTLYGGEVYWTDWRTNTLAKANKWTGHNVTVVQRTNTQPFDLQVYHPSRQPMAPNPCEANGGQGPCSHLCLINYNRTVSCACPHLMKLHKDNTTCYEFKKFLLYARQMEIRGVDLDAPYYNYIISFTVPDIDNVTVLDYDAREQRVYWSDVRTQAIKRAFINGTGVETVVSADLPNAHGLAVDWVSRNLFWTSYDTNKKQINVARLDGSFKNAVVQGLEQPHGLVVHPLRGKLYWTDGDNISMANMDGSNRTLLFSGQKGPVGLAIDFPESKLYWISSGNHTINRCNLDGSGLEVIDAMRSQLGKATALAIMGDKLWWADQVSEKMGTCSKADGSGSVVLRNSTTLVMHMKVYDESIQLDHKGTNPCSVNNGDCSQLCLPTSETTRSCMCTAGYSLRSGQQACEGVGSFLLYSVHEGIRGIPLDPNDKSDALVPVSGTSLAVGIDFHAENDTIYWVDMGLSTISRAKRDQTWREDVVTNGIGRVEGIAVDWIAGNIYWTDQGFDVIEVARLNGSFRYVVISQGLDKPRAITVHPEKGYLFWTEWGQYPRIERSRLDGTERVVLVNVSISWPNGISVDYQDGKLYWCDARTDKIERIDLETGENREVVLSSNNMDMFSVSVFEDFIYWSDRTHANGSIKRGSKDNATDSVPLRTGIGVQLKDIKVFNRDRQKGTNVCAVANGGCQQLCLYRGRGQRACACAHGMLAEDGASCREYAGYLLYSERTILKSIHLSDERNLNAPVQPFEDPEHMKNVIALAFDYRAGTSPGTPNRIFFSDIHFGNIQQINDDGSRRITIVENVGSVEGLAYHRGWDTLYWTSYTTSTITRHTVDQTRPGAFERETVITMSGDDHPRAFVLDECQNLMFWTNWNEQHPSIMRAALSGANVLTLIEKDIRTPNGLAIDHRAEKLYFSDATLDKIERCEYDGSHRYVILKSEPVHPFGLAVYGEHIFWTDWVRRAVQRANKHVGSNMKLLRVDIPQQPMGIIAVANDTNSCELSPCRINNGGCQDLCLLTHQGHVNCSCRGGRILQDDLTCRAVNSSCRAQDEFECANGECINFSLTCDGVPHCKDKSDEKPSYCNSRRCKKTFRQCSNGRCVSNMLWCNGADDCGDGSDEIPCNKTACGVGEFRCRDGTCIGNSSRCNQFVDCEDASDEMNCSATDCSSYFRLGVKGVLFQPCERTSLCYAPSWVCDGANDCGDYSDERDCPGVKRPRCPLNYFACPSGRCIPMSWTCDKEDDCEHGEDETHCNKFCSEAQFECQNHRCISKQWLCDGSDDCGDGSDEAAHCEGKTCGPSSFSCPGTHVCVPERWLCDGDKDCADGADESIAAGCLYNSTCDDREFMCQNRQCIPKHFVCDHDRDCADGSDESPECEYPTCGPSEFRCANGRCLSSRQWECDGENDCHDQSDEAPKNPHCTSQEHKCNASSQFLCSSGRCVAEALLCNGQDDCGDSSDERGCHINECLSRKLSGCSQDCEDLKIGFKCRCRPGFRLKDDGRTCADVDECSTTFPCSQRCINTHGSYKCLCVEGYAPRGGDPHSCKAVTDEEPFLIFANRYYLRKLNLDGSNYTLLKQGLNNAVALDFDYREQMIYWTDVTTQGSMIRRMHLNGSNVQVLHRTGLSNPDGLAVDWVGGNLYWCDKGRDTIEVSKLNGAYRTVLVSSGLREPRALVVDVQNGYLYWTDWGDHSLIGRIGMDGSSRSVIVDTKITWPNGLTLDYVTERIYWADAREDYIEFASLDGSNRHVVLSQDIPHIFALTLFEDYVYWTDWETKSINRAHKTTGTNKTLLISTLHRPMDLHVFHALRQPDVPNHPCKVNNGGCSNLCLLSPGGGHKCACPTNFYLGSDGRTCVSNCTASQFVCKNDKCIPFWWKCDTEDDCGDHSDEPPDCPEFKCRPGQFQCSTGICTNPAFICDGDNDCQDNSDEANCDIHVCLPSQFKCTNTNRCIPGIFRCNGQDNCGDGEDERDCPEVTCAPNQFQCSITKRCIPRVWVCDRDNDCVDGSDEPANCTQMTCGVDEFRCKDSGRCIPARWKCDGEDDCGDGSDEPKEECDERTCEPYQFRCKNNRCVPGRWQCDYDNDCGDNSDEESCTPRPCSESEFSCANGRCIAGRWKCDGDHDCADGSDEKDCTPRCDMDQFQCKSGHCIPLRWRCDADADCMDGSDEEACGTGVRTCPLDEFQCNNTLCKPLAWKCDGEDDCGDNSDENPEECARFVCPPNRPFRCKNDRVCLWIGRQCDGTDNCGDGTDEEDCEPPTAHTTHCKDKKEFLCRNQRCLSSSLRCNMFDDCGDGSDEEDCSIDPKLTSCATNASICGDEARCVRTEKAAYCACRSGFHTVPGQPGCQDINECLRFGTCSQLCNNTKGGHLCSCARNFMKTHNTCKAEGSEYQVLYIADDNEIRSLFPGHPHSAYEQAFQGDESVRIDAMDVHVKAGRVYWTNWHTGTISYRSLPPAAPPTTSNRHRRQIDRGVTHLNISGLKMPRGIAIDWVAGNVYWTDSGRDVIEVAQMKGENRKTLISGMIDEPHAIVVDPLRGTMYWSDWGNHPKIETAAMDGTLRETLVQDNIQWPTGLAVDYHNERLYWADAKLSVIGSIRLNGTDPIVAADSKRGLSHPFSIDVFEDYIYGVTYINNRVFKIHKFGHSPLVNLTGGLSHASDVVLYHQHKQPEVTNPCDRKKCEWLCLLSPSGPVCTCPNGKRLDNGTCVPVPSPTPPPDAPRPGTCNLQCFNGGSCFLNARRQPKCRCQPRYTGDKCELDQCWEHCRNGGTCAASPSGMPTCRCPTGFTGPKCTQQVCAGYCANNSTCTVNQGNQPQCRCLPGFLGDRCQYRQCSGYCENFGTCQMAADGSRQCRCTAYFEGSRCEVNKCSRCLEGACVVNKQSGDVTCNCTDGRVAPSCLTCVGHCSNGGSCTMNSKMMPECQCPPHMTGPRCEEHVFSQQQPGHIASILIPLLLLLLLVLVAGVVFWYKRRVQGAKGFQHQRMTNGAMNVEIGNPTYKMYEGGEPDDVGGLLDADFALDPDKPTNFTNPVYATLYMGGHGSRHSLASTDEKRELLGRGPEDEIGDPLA

[5] = tested on: TβR-V purified from bovine liver plasma membranes; assay: 125I-IGFBP-3 / 125I-TGF-β1 affinity labeling of purified TβR-V; type: binding; conditions: DSS, β1^25(41-65) 20 μM, RAP 10-40 μg/ml, α2M* 100 nM, lactoferrin 100 nM
PEA-13 cells [6] = assay: Internalization and degradation of cell surface-bound 125I-α2M*, PEA-13 cells; type: cell-based, mouse; conditions: PEA-13, pH 6.0, 1 hr at 37° C.
acidic pH binding sites [7] = target: T1, acidic pH binding sites; assay: Specific binding of 125I-ligands to PEA-13 cells at acidic pH; design: endogenous in cells; host or cells: PEA-13 (LRP-1-deficient mouse embryonic fibroblasts); conditions: PEA-13 cells
acidic pH binding sites [8] = target: acidic pH binding sites (Neogale vison, UniProt A0A8C7BSJ2); assay: Specific binding of 125I-ligands to Mv1Lu cells at acidic pH; design: species or system mink; conditions: Mv1Lu cells; for pH of optimal/maximal binding: EGTA/BAPTA- or GST-RAP-sensitive binding, 0° C.
Sequence of acidic pH binding sites (Neogale vison, UniProt A0A8C7BSJ2) (A0A8C7BSJ2 entry or part of it): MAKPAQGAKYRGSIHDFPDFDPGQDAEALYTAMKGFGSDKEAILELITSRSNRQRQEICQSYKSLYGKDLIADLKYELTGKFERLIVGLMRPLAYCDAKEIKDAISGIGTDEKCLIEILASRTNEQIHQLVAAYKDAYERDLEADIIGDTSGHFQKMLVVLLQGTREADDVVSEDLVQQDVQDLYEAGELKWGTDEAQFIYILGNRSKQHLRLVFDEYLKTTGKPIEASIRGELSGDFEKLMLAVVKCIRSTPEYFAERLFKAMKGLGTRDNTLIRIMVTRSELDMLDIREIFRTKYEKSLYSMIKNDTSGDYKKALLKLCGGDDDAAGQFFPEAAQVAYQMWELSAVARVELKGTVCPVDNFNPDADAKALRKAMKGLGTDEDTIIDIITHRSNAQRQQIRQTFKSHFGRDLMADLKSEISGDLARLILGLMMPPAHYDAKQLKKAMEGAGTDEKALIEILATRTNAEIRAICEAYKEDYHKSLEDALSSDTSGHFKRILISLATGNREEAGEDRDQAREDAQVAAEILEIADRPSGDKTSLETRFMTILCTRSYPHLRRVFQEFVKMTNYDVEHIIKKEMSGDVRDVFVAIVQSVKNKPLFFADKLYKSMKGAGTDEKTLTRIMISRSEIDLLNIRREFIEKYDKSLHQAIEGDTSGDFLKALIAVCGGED

32D/IR/IRS-2 cells = assay: [methyl-3H] thymidine incorporation, 32D/IR/IRS-2 cells; type: cell-based, murine; conditions: 32D cells expressing IRS-2 and insulin receptor
PEA-C11 cells [9] = assay: [methyl-3H] thymidine incorporation, PEA-C11 cells; type: cell-based, mink; conditions: TGF-β1 20 pM
H1299/vector cells [10] = assay: Cell growth (cell number), H1299/vector cells; type: cell-based, human; conditions: TGF-β1 20 pM or IGFBP-3 1 μg/ml, 3-day
PEA-13 cells [11] = assay: [methyl-3H] thymidine incorporation, PEA-13 cells; type: cell-based, mouse; conditions: TGF-β1 20 pM
Experimental: (§1) FIG. 7 depicts the effect of TGF-β1 on DNA synthesis (A), cell growth (B) and PAI-1 expression (C) in MEF and PEA-13 cells. (A) Cells were treated with various concentrations of TGF-β1 as indicated. DNA synthesis was determined by measuring [methyl-^3H] thymidine incorporation into cellular DNA. The [methyl-^3H] thymidine incorporation in cells treated without TGF-β1 (100,861±3,720 and 103,262±6,722 cpm/well for MEF and PEA-13 cells, respectively) was taken as 0% inhibition. The negative values of inhibition indicate mitogenic activity. […] Each datapoint is the mean±S.D. of quadruplicate determinations. […] Data are representative of six similar experiments. (B) Cells were treated with various concentrations of TGF-β1 as indicated. The cell number was counted after a 4 day incubation. […] The negative values of the inhibition indicate the growth stimulatory activity. Each datapoint is the mean±S.D. of quadruplicate determinations. […] Data are representative of four similar experiments. (C) Cells were treated with various concentrations of TGF-β1 as indicated. The PAI-1 expression in these cells was determined by Northern blot analysis. The expression of G3PDH was used as control. The relative levels of the transcripts were quantified by a PhosphoImager. Data are representative of four similar experiments. […]

PEA-C11 cells [12] = assay: Cell growth (cell number), PEA-C11 cells; type: cell-based, mink; conditions: TGF-β1 20 pM, PEA-C11, 4-day
Experimental: (§2) FIG. 6 depicts the effects of IGFBP-3 and TGF-β1 on DNA synthesis (A), cell growth (B) and PAI-1 expression (C) in Mv1Lu and PEA-C11 cells. (A,B) Cells were incubated with various concentrations of IGFBP-3 (a) or TGF-β1 (b) as indicated. DNA synthesis and cell growth were determined by measuring the [methyl-^3H] thymidine incorporation into cellular DNA after 18 hr incubation (A) and by counting cell number after a 4-day incubation (B), respectively. The [methyl-^3H] thymidine incorporation in cells treated without IGFBP-3 and TGF-β1 (29,170±1,657 and 59,947±7,692 cpm/well for Mv1Lu and PEA-C11 cells, respectively) were taken as 0% inhibition. […] Each data point is the mean±S.D. of quadruplicate determinations. […] Data are representative of eight similar experiments. (C) Cells were incubated with various concentrations of TGF-β1 as indicated. After 2 hr at 37° C., the PAI-1 expression was determined by Northern blot analysis. The expression of glyceraldehyde-3-phosphate dehydrogenase (G3PDH) was used as control. The relative levels of the transcripts were quantified by a Phospholmager. Data are representative of four similar experiments.
(§3) Cells were plated at a density of 1-2×10^4 cells/dish in DMEM containing 1% fetal calf serum. The cell number was counted every day or after a 3-day incubation using a hematocytometer. The assays were performed in quadruplicate.

MEF cells [13] = assay: Cell growth (cell number), MEF cells; type: cell-based, mouse; conditions: TGF-β1 20 pM
Experimental: as §1, with “The expression of G3PDH was used as control.” left out, “PhosphoImager.” for “PhosphoImager. Data are representative of four similar experiments.”
(§4) Cells were plated at a density of 1-2×10^4 cells/dish in DMEM containing 1% fetal calf serum. The cell number was counted every day or after a 3-day incubation using a hematocytometer. […]

IRS-2 [14] = assay: 32P metabolic labeling and immunoprecipitation of IRS-2, DR26 cells; type: cell-based, mink
32D/IRS-1 cells = assay: [methyl-3H] thymidine incorporation, 32D/IRS-1 cells; type: cell-based, murine; conditions: 32D cells expressing IRS-1
Mv1Lu cells [15] = assay: Cell growth (cell number), Mv1Lu cells; type: cell-based, mink; conditions: TGF-β1 20 pM, 4-day
Experimental: as §2, §3

H1299/vector cells [16] = assay: [methyl-3H] thymidine incorporation, H1299/vector cells; type: cell-based, human; conditions: various concentrations
H1299/LRP cells [17] = assay: [methyl-3H] thymidine incorporation, H1299/LRP cells; type: cell-based, human; conditions: various concentrations
IRS-2 [18] = assay: 32P metabolic labeling and immunoprecipitation of IRS-2, Mv1Lu cells; type: cell-based, mink; conditions: Mv1Lu; IGFBPs 1 μg/ml; TGF-β1 20 pM
MEF cells [19] = assay: [methyl-3H] thymidine incorporation, MEF cells; type: cell-based, mouse; conditions: TGF-β1 20 pM
Experimental: as §1

Mv1Lu cells [20] = assay: [methyl-3H] thymidine incorporation (DNA synthesis), Mv1Lu cells; type: cell-based, mink; conditions: Mv1Lu
[21] = tested on: 32D cells expressing vector only; assay: [methyl-3H] thymidine incorporation, 32D cells transfected with vector only; type: cell-based, murine
H1299/LRP cells [22] = assay: Cell growth (cell number), H1299/LRP cells; type: cell-based, human; conditions: TGF-β1 20 pM or IGFBP-3 1 μg/ml, 3-day
PEA-13 cells [23] = assay: Cell growth (cell number), PEA-13 cells; type: cell-based, mouse; conditions: TGF-β1 20 pM
Experimental: as §1, with “The expression of G3PDH was used as control.” left out, “PhosphoImager.” for “PhosphoImager. Data are representative of four similar experiments.”
as §4

## CN1CCN(CCCN2c3ccccc3Sc3ccc(C(F)(F)F)cc32)CC1 [trifluoperazine, reference compound]
MEF cells [1]; MEF cells, pH 7.4
  Degradation of cell surface-bound ^125I-α2M* or ^125I-TGF-β1: trifluoperazine-inhibitable degradation
[2]
  Depletion of cell surface α2M* receptors: ~50%
Acidic pH binding sites [3]; pH 5.5, verapamil and W-5 at 100 μM
  Inhibition of ^125I-α2M* binding to cells: most potent inhibitors
LRP-1
  IC50: 25000 to 30000 nM
Mv1Lu cells [4]
  Degradation of cell surface-bound ^125I-TGF-β1 or ^125I-α2M*: completely blocked; also recorded: completely inhibits

## α2M*: α2M activated by methylamine
MEF cells [1]; pH 6.0, 1 hr at 37° C.
  Cell surface-bound ligand internalized and degraded: ~70%
MEF cells [1]; pH 7.4, 1 hr
  Cell surface-bound ligand internalized and degraded: more than 90%
LRP-1/TβR-V
  Kd: ~0.075 nM
[5]; 0.1 nM 125I-TGF-β1, […] 0° C.
  ^125I-TGF-β1 binding to purified TβR-V: blocked
[5]; 10 nM 125I-IGFBP-3, […] 0° C.
  ^125I-IGFBP-3 binding to purified TβR-V: did not inhibit
Acidic pH binding sites [3]
  pH of maximal binding: 5
PEA-13 cells [6]
  Cell surface-bound ligand internalized and degraded: ~70%
Acidic pH binding sites [7]
  pH of maximal binding: 5
Acidic pH binding sites [7]; acidic pH, read-out: IC50, inhibition of ^125I-α2M* binding
  IC50: ~120 nM
Acidic pH binding sites [8]; pH 5
  Number of binding sites (Scatchard plot): ~1×10^6 sites/cell
  Saturating concentration of binding: ~120 nM
Acidic pH binding sites [8]; pH 5, read-out: Apparent Kd (Scatchard plot)
  Kd: ~51 nM
Acidic pH binding sites [8]
  pH of optimal/maximal binding: 5

## TGF-β1: human transforming growth factor-β1
32D/IR/IRS-2 cells
  Growth inhibitory response (DNA synthesis): potent growth inhibitory response
PEA-C11 cells [9]
  Inhibition of DNA synthesis: ~70%
H1299/vector cells [10]
  Effect on cell growth: acted as mitogens or growth stimulators
PEA-13 cells [11]
  Stimulation of DNA synthesis: ≤ 20%
LRP-1/TβR-V
  Kd: 0.05 to 0.4 nM
PEA-C11 cells [12]
  Inhibition of cell growth: ~70%
Acidic pH binding sites [3]
  pH of maximal binding: 5
MEF cells [13]
  Inhibition of cell growth: 30-40%
IRS-2 [14]; TGF-β1 alone
  32P-labeled phosphorylation of IRS-2: capable of stimulating
IRS-2 [14]; TGF-β1 up to 400 pM
  Dephosphorylation of IRS-2: did not induce dephosphorylation
32D/IRS-1 cells
  Growth inhibitory response (DNA synthesis): potent growth inhibitory response
Mv1Lu cells [15]
  Inhibition of cell growth: 90-100%
H1299/vector cells [16]
  Effect on DNA synthesis: acted as mitogens or growth stimulators
H1299/LRP cells [17]
  Effect on DNA synthesis: inhibited
IRS-2 [18]
  Induction of specific dephosphorylation (mobility change) of 32P-labeled IRS-2: inability
MEF cells [19]
  Inhibition of DNA synthesis: 30-40%
Acidic pH binding sites [7]
  pH of maximal binding: 5
Acidic pH binding sites [8]
  pH of optimal/maximal binding: 5
Mv1Lu cells [20]; TGF-β1 0.5 pM
  Inhibition of DNA synthesis: ~75%
Mv1Lu cells [20]; TGF-β1 20 pM
  Inhibition of DNA synthesis: 90-100%
[21]
  Inhibition of DNA synthesis: minimally or not at all
H1299/LRP cells [22]
  Effect on cell growth: inhibited
PEA-13 cells [23]
  Stimulation of cell growth: ≤ 20%

— patent publication US7741283B2, “Compositions and methods for inhibiting cell proliferation” (St. Louis University, priority 2003, dated 2010)
